According to US9150627B2, “Anti tumoral immunogenic peptides and vaccine thereof” (priority 2004, dated 2015):
Where no end group is shown, it is not given here.

System: DHD-K12 cells
Details: rat, in vivo
From the text: Autologous colon carcinoma DHD-K12 line cells were inoculated intra-splenically in BDIX rats. These cells metastatize at polmonar and hepatic level and naturally express the epitope common also to human colon rectal carcinoma ([…] (SEQ ID NO:4)). To evaluate the relevance of […] (SEQ ID NO:4) antigen in antigen specific cytotoxic response BDIX rats were immunized with DHD-K12.
PBMC cytotoxic activity (cytotoxicity test based on the release of ^51Cr or LDH) of BDIX rats against DHD-K12 cells was evaluated after immunization and tumor inoculum.

## RTQKEASIC
  PBMC cytotoxic activity after tumor inoculum, pre-immunized vs non immunized rats: significantly increased
  PBMC cytotoxic activity against DHD-K12 after immunization: high cytotoxic activity
